Test results published in patent publication US9737616B2, “Compounds and methods for the treatment of ERB B2/NEU positive diseases” (Bio-Thera Solutions, Ltd., Co., priority 2012, dated 2017).

Key:
tubulin = test: HTS-Tubulin Polymerization Assay Kit, tubulin polymerization in vitro; assay type: biochemical; settings: for inhibition of tubulin polymerization compared with the PBS buffer: Example 6, 1 μM stock of test substance, 4 mg/mL tubulin, 37° C., 405 nm
Experimental: The effect of 3AA-MDC, 206-3AA-MDC and the metabolites (Cys-3AA-MDC and Lys-mcc-MDC) of prodrug antibody maytansinoid conjugates on the tubulin polymerization in vitro was assessed by HTS-Tubulin Polymerization Assay Kit (BK004P, Cytoskeleton, Inc., USA). According to the instruction of kit, pre-warm the 96-well plate to 37° C. for 30 min prior to starting the assay. At the same time, the spectrophotometer (SpectraMax, Molecular Devices, USA) was set as follow: wavelength, 405 nm; temperature, 37° C.; Kinetic, 31 cycles of 1 reading per minute. Make cold G-PEM buffer (990 μL General Tubulin Buffer+10 μL GTP Stock) and keep it on ice. Prepare 4 mg/mL tubulin, 1 μM L-3AA-MDC (N2′-deacetyl-N2′-(6-maleimido-1-oxo-hexyl)maytansine), 1 μM 206-3AA-MDC, 1 μM cys-3AA-MDC, 1 μM lys-mcc-MDC, 100 μM Paclitaxel, and 100 μM Nocodazole. Add 10 μL G-PEM, 3AA-MDC, 206-3AA-MDC, cys-3AA-MDC, lys-mcc-MDC, Paclitaxel, Nocodazole into the wells, and then add 100 μL 4 mg/ml tubulin to each well. Immediately place the plate into the spectrophotometer and start recording using the kinetic setup described above. […] Nocodazole, the tubulin polymerization inhibitor, was set as a negative control. The metabolite Cys-3AA-MDC was prepared by reaction of 3AA-MDC with cysteine under the base DIEA in CH2Cl2. […] The metabolite Lys-MCC-MDC was prepared by reaction of SMCC-MDC with lysine under the base DIEA in DMF.
The effect of 3AA-MDC and related metabolites on the tubulin polymerization in vitro was assessed by HTS-Tubulin Polymerization Assay Kit (BK004P, Cytoskeleton, Inc., USA). According to the instruction of kit, pre-warm the 96-well plate to 37° C. for 30 min prior to starting the assay. At the same time, the spectrophotometer (SpectraMax, Molecular Devices, USA) was set as follow: wavelength, 405 nm; temperature, 37° C.; Kinetic, 31 cycles of 1 reading per minute. Make cold G-PEM buffer (990 μL General Tubulin Buffer+10 μL GTP Stock) and keep it on ice. Prepare 4 mg/ml tubulin, 200 nM L-3AA-MDC (N2′-deacetyl-N2′-(6-maleimido-1-oxo-hexyl)maytansine), or related compounds cys-3AA-MDC, or lys-mcc-MDC, 100 μM Paclitaxel, 100 μM Nocodazole, and 1 μM 206-3AA-MDC (3AA-MDC-antibody). Add 10 μL G-PEM, 3AA-MDC, Paclitaxel, Nocodazole and 206-3AA-MDC or related metabolites into the wells, and then add 100 μL 4 mg/ml tubulin to each well. Immediately place the plate into the spectrophotometer and start recording using the kinetic setup described above.

[1] = system: human acute lymphoblastic leukemia line C.E.M.; settings: Wolpert-DeFillippes et al. 1975; cited from earlier work

In the case of `COc1cc2cc(c1Cl)N(C)C(=O)C[C@H](OC(=O)[C@H](C)N(C)C(=O)CCCCCN1C(=O)C=CC1=O)[C@]1(C)OC1[C@H](C)[C@@H]1C[C@@](O)(NC(=O)O1)[C@H](OC)/C=C/C=C(\C)C2` (stereo partly drawn) [3AA-MDC, N2′-deacetyl-N2′-(6-maleimido-1-oxo-hexyl)-maytansine], the “inhibition of tubulin polymerization compared with the PBS buffer” value (tubulin) is reported as “more significantly inhibited” and the “inhibition of tubulin polymerization” value (tubulin; Example 7, 200 nM stock, FIG. 1) is reported as “more significantly inhibited”.
For `CC(=O)O[C@H]1C(=O)[C@@]2(C)[C@H]([C@H](OC(=O)c3ccccc3)[C@]3(O)C[C@H](OC(=O)[C@H](O)[C@@H](NC(=O)c4ccccc4)c4ccccc4)C(C)=C1C3(C)C)[C@]1(OC(C)=O)CO[C@@H]1C[C@@H]2O` [Paclitaxel], the “relative activity of tubulin polymerization, enhanced” value (tubulin; Example 7, 100 μM stock) was “about 3 fold”.
In the case of `COc1cc2cc(c1Cl)N(C)C(=O)C[C@H](OC(=O)[C@H](C)N(C)C(C)=O)[C@]1(C)O[C@H]1[C@H](C)[C@@H]1C[C@@](O)(NC(=O)O1)[C@H](OC)/C=C/C=C(\C)C2` [Maytansine], the “inhibitory concentration, as low as” value [1] is listed as 10^−7 µg/mL.
With `COC(=O)Nc1nc2ccc(C(=O)c3cccs3)cc2[nH]1` [Nocodazole] the “relative activity of tubulin polymerization, decreased” value (tubulin; Example 7, 100 μM stock) was 2.5 fold.
In the case of `COc1cc2cc(c1Cl)N(C)C(=O)C[C@H](OC(=O)[C@H](C)N(C)C(=O)CCSC1CC(=O)N(CC3CCC(C(=O)NCCCC[C@H](N)C(=O)O)CC3)C1=O)[C@]1(C)O[C@H]1[C@H](C)[C@@H]1C[C@@](O)(NC(=O)O1)[C@H](OC)/C=C/C=C(\C)C2` (stereo partly drawn) [Lys-mcc-MDC], the “inhibition of tubulin polymerization compared with the PBS buffer” value (tubulin) is reported as “more significantly inhibited”.
